# In PubChem BioAssay AID2060622 (Molecular Pharmacology Branch, DTP, NCI, 2025):
# Test system: 242566-281-R-J2-PDC complex spheroid viability
# Assay: Anticancer human tumor 242566-281-R-J2-PDC patient-derived pancreatic carcinoma cell line growth inhibition [CLK]
# Conditions: for IC50: curve of first compound; for viability, T/C: stronger effect = lower value
# In short: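 Multi-cell-type spheroids combined patient-derived tumor cells with HUVEC endothelial cells and human mesenchymal stem cells. Paired agents were dosed in half-log steps down from about clinical Cmax, or from 10 microM where Cmax was unknown.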
# 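Further: spheroids exposed to compounds for 7 days before readout.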
# 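Wherever viability, T/C is given: 100% = DMSO vehicle control wells.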
smiles,measurement,setting,value
CC(C)CC(NC(=O)C(Cc1ccccc1)NC(=O)c1cnccn1)B(O)O (configuration not stated) + CN1CCN(c2cc(C(=O)Nc3cc4cc(-c5cnn(C)c5)ccc4cn3)ccn2)CC1,IC50,second compound 0.0316 µM,2.08 nM
same,IC50,second compound 0.1 µM,1.98 nM
same,IC50,second compound 0.316 µM,< 0.949 nM
same,IC50,second compound 1 µM,< 0.949 nM
same,IC50,second compound 3.16 µM,< 0.949 nM
same,IC50,second compound 10 µM,< 0.949 nM
same,"viability, T/C","second compound 0.0316 µM, first compound 0.000949 µM",103%
same,"viability, T/C","second compound 0.0316 µM, first compound 0.003 µM",25.5%
same,"viability, T/C","second compound 0.0316 µM, first compound 0.00949 µM",1.28%
same,"viability, T/C","second compound 0.0316 µM, first compound 0.03 µM",0.43%
same,"viability, T/C","second compound 0.0316 µM, first compound 0.0949 µM",0.27%
same,"viability, T/C","second compound 0.0316 µM, first compound 0.3 µM",0.23%
same,"viability, T/C","second compound 0.1 µM, first compound 0.000949 µM",98.8%
same,"viability, T/C","second compound 0.1 µM, first compound 0.003 µM",22.7%
same,"viability, T/C","second compound 0.1 µM, first compound 0.00949 µM",0.52%
same,"viability, T/C","second compound 0.1 µM, first compound 0.03 µM",0.43%
same,"viability, T/C","second compound 0.1 µM, first compound 0.0949 µM",0.39%
same,"viability, T/C","second compound 0.1 µM, first compound 0.3 µM",0.27%
same,"viability, T/C","second compound 0.316 µM, first compound 0.000949 µM",26.7%
same,"viability, T/C","second compound 0.316 µM, first compound 0.003 µM",2.24%
same,"viability, T/C","second compound 0.316 µM, first compound 0.00949 µM",0.29%
same,"viability, T/C","second compound 0.316 µM, first compound 0.03 µM",0.28%
same,"viability, T/C","second compound 0.316 µM, first compound 0.0949 µM",0.29%
same,"viability, T/C","second compound 0.316 µM, first compound 0.3 µM",0.51%
same,"viability, T/C","second compound 1 µM, first compound 0.000949 µM",5.2%
same,"viability, T/C","second compound 1 µM, first compound 0.003 µM",1.12%
same,"viability, T/C","second compound 1 µM, first compound 0.00949 µM",0.43%
same,"viability, T/C","second compound 1 µM, first compound 0.03 µM",0.31%
same,"viability, T/C","second compound 1 µM, first compound 0.0949 µM",0.26%
same,"viability, T/C","second compound 1 µM, first compound 0.3 µM",0.4%
same,"viability, T/C","second compound 3.16 µM, first compound 0.000949 µM",7.89%
same,"viability, T/C","second compound 3.16 µM, first compound 0.003 µM",1.95%
same,"viability, T/C","second compound 3.16 µM, first compound 0.00949 µM",0.39%
same,"viability, T/C","second compound 3.16 µM, first compound 0.03 µM",0.2%
same,"viability, T/C","second compound 3.16 µM, first compound 0.0949 µM",0.38%
same,"viability, T/C","second compound 3.16 µM, first compound 0.3 µM",0.8%
same,"viability, T/C","second compound 10 µM, first compound 0.000949 µM",1.93%
same,"viability, T/C","second compound 10 µM, first compound 0.003 µM",1.11%
same,"viability, T/C","second compound 10 µM, first compound 0.00949 µM",0.3%
same,"viability, T/C","second compound 10 µM, first compound 0.03 µM",0.44%
same,"viability, T/C","second compound 10 µM, first compound 0.0949 µM",0.26%
same,"viability, T/C","second compound 10 µM, first compound 0.3 µM",0.34%
